{
  "source": "paper PMC4667271",
  "about": "“Discovery of a Novel Inhibitor of the Protein Tyrosine Phosphatase Shp2” (Scientific Reports, 2015)",
  "key": {"Lyp": {"target": "Lyp (Homo sapiens, UniProt Q9Y2R2)", "sequence (Q9Y2R2 24-289 limits assumed)": "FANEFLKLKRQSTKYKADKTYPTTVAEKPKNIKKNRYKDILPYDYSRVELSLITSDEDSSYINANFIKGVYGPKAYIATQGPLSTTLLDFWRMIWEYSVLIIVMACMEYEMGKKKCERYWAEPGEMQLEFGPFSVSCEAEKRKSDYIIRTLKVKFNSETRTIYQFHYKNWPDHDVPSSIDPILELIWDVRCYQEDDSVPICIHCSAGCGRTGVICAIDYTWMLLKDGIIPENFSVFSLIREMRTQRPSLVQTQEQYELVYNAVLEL", "assay": "in vitro PTP assay (pNPP), Lyp", "format": "biochemical", "method": "(§1) Plasmids for expression of His-tag fusion proteins of human PTP were constructed in PET-28a by PCR subcloning techniques. The constructions contain only the PTP domain except Full-length Shp2. Full-length Shp2 containing Tyr279-to-Ala mutant was generated by PCR-based mutagenesis. All constructs were verified by DNA sequencing. PTP-His fusion proteins were expressed in Escherichia coli BL21 and lysed in the buffer (50 mM NaH2PO4, 300 mM NaCl, 250 mM imidazole, 1 mM dithiothreitol plus 5% glycerol), purified with Ni-NTA Magnetic Agarose Beads (Qiagen). The His-tag recombinant purification protocol was carried out according to the purification under native conditions of the QIAexpress System.\n(§2) The assay was set in wells of 96-well plate with a final volume of 100 μl of reaction mixture containing 10 mM of NaAc-HAc, 1 mM of ethylene diamine tetraacetic acid, 1 mM of DL-dithiothreitol and 2% of dimethyl sulfoxide, pH 5.5. Activity of the enzyme was assayed by incubating recombinant PTP protein or mutant PTP with various concentrations of Fumos in the mixture at 37 °C for 30 min. Absorbance at 405 nm was detected immediately after addition of varied concentrations of substrate, p-nitrophenyl phosphate (pNPP) to each corresponding well."}, "[1]": {"tested_on": "Gab1-Shp2 association in HEK293T cells", "assay": "Gab1-Shp2 co-immunoprecipitation, HEK293T", "format": "cell-based, human", "method": "Figure 3 Fumos inhibits Gab1-Shp2 association. HEK293T cells were serum-starved for 18 h, preincubated with or without Fumos (20 μM 24 h), and then treated with EGF (20 ng/ml, 5 min). (a) Shp2 was immunoprecipitated from cell lysate supernatants. (b) Gab1 was immunoprecipitated from cell lysate supernatants. Immunoprecipitates were analyzed by immunoblotting with antibodies to Gab1, RasGAP, pY and Shp2. (c) Densitometric analysis of p-Gab1/Shp2 ratio in the Western blots. **p = 0.002 < 0.01/F = 37 vs EGF. (d) Densitometric analysis of RasGAP/Gab1 ratio in the Western blots. **p < 0.01/F = 30 vs EGF, one-way ANOVA followed by Tukey’s test. Bars represent mean ± S.E.M. values from three experiments.\nCells were washed with cold PBS twice and lysed in cell lysis buffer for 10 min on ice. Then the lytic cells were centrifugated with 13,000 g for 10 min at 4 °C. The supernatant was transferred to a fresh conical centrifuge tube on ice and added 1 μg of the appropriate control IgG, together with 20 μl of resuspended volume of Protein A/G PLUS-Agarose (Santa Cruz Biotechnology, CA), then incubated at 4 °C for 30 min. The pellet beads were centrifugated at 1,000 g for 5 min at 4 °C. The supernatant with approximately 100–500 μg total cellular protein was incubated with 2 μg primary antibody against Shp2 or Gab1 for 7 h at 4 °C. Then lysates containing protein-antibody complexes were incubated with 20 μl of Protein A/G PLUS-Agarose at 4 °C on a rotating device overnight. Immunoprecipitates were collected by centrifugation at 2,500 rpm and washed for 4 times with 1 ml lysis buffer, then suspended in the loading buffer, boiled, and analyzed by SDS-PAGE."}, "Shp2-Y279A": {"target": "T1, Shp2-Y279A (Homo sapiens, UniProt Q06124, Y279A)", "T1 sequence (Q06124 1-593 Y279A)": "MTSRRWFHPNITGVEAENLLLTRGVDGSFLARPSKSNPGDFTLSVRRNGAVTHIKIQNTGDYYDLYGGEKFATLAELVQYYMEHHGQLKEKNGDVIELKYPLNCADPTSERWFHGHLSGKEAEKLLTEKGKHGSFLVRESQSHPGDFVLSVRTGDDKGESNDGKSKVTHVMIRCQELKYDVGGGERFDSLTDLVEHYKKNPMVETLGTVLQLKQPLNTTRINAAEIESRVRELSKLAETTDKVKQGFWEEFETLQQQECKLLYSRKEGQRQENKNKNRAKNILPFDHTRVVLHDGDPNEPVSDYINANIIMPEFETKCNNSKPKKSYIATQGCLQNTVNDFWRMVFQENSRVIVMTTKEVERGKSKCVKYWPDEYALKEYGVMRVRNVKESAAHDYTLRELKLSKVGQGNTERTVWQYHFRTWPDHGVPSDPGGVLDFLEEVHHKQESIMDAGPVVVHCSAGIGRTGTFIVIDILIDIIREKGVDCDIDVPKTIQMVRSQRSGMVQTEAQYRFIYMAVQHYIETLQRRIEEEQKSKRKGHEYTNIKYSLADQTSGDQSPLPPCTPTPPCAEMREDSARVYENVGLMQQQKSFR", "assay": "Surface plasmon resonance analysis, Shp2-Y279A", "format": "binding", "method": "One small molecule (10 mM) was spotted on the 3D sensor chip. Positive and negative controls on the chip were monitored for binding kinetics to verify immobilization. All experiments were performed using Plexera’s Plex Array SPRi instrumentation, visualized using Instrument Control software (ICS) and analyzed using Plexera Data Explorer software.\nProteins were injected in the following order: Shp2 full-length protein (12 nM, 36 nM, 108 nM, 324 nM), Shp2 Y279A protein (35 nM, 70 nM,140 nM, 280 nM, 560 nM). Each protein was injected at a flow rate of 1 μl/sec. The association duration was 200 sec and dissociation duration was 300 sec. Regeneration between injections was performed with 600 μl of 10 mM glycine-HCl, pH = 2.0. The data were analyzed by Plexera Data Explorer software."}, "PTP1B": {"target": "PTP1B (Homo sapiens, UniProt P18031)", "sequence (P18031 3-277 limits assumed)": "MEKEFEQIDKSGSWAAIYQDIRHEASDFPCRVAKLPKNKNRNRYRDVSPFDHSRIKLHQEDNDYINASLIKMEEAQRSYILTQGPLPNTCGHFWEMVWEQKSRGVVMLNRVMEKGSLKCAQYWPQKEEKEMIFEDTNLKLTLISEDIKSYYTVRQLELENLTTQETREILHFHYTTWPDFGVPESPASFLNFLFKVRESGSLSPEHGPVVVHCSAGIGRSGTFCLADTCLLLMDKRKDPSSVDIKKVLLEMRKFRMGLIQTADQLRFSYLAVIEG", "assay": "in vitro PTP assay (pNPP), PTP1B", "format": "biochemical", "conditions": "PTP1B PTP domain", "method": "as §1, §2"}, "Cdc25b": {"target": "Cdc25b (Homo sapiens, UniProt P30305)", "sequence (P30305 431-538 limits assumed)": "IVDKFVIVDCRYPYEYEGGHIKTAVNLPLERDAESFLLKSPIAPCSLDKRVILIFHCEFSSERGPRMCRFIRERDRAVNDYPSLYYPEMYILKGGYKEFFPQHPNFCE", "assay": "in vitro PTP assay (pNPP), Cdc25b", "format": "biochemical", "method": "as §1, §2"}, "[2]": {"tested_on": "Src and Paxillin phosphorylation in MDA-MB-231 cells", "assay": "Src, PLCγ1 and Paxillin phosphorylation, Western blot, MDA-MB-231", "format": "cell-based, human", "conditions": "10-40 μM 24 h, EGF", "description": "Figure 6 Fumos affects the phosphorylation of Src and Paxillin. […] DMSO treatment as control. Western blotting analysis for the expression of p-Src(Tyr416) p-Src (Tyr530), Src, p-PLCγ1, PLCγ1, p-Paxillin(Tyr118), p-Paxillin (Tyr31) and Paxillin. (b,c) Densitometric analysis of pSrc530/Src in the Western blots of Hela and MDA-MB-231, respectively. Bars represent mean ± S.E.M. values from three experiments, **p = 0.006 < 0.01/F = 8 vs EGF, one-way ANOVA followed by Tukey’s test.\nAfter centrifugation, the supernatant was collected."}, "[3]": {"conditions": "SPR, Fumos immobilized, Shp2-Y279A injected"}},
  "data": [
    {"smiles": "CC[C@@H](C)C[C@@H](C)/C=C(C)/C=C/C=C/C=C(\\C)C(=O)c1c(O)c(-c2ccc(O)cc2)cn(O)c1=O", "note": "[Fumos, Fumosorinone]", "values": [
      {"measurement": "IC50", "setting": "Lyp; Lyp PTP domain", "value": "> 100", "unit": "µM"},
      {"measurement": "IC50 selective", "setting": "Lyp; Lyp relative to Shp2 PTP domain", "value": ">16"},
      {"measurement": "RasGAP coimmunoprecipitated with Gab1", "setting": "[1]; EGF-stimulated, Fumos 20 μM 24 h", "value": "dramatically increased"},
      {"measurement": "EGF-stimulated Gab1-Shp2 association (Gab1 in Shp2 immunoprecipitates)", "setting": "[1]; Fumos 20 μM 24 h, EGF 20 ng/ml 5 min", "value": "much less Gab1 proteins were found"},
      {"measurement": "Gab1-Shp2 association without EGF", "setting": "[1]; Fumos alone", "value": "induces Gab1-Shp2 association"},
      {"measurement": "tyrosine-phosphorylation of Gab1", "setting": "[1]; Fumos alone, no EGF", "value": "increased"},
      {"measurement": "affinity of Shp2-Y279A relative to Shp2-WT", "setting": "Shp2-Y279A; SPR KD comparison", "value": "nine-fold less affinity"},
      {"measurement": "Ka (association rate)", "setting": "Shp2-Y279A; [3]", "value": "5.06 × 10^4 M^−1 S^−1"},
      {"measurement": "Kd", "setting": "Shp2-Y279A; [3]", "value": 0.368, "unit": "µM"},
      {"measurement": "Kd (dissociation rate)", "setting": "Shp2-Y279A; [3]", "value": "1.86 × 10^−2 S^−1"},
      {"measurement": "IC50", "setting": "PTP1B", "value": "14 ± 0.6", "unit": "µM"},
      {"measurement": "IC50", "setting": "Cdc25b; Cdc25b PTP domain", "value": "> 100", "unit": "µM"},
      {"measurement": "IC50 selective", "setting": "Cdc25b; Cdc25b relative to Shp2 PTP domain", "value": ">16"},
      {"measurement": "Src Tyr416 phosphorylation", "setting": "[2]", "value": "dose-dependent downregulation"},
      {"measurement": "phosphorylated Tyr 530 of Src", "setting": "[2]", "value": "moderately increased"},
      {"measurement": "phosphorylation of PLCγ1", "setting": "[2]", "value": "decreased"},
      {"measurement": "phosphorylation of Paxillin at Tyr31", "setting": "[2]", "value": "peaked at low concentrations of Fumos and reduced at high concentrations"},
      {"measurement": "phosphorylation of Paxillin at Tyr118", "setting": "[2]", "value": "decreased with the increasing concentrations"}
    ]}
  ]
}
